Legend:
in vivo = assay: in vivo; set-up: species or system Cynomolgus macaques; conditions: cynomolgus monkey, sc, 0.02 mg/kg
Description: The pharmacokinetic characteristics in mammals following intravenous injection and subcutaneous injection of the compounds were tested using standard protocols. In the experiment, the candidate compounds were formulated into clear solution, which was administered to Cynomolgus macaques by single subcutaneous injection (SC, 0.02 mpk). The vehicle for subcutaneous injection was citrate buffer solution (20 mM, pH=7). The whole blood was collected and processed to get the plasma. The drug concentration was analyzed by LC-MS/MS, and the pharmacokinetic parameters were calculated using Phoenix WinNonlin software.

GIPR = target: T1, GIPR (Homo sapiens, UniProt P48546); assay: In vitro GIPR agonistic activity test (cAMP kit); assay type: cell-based; conditions: CHO host cells
T1 construct: host or cells: CHO
T1 sequence (P48546 22-466): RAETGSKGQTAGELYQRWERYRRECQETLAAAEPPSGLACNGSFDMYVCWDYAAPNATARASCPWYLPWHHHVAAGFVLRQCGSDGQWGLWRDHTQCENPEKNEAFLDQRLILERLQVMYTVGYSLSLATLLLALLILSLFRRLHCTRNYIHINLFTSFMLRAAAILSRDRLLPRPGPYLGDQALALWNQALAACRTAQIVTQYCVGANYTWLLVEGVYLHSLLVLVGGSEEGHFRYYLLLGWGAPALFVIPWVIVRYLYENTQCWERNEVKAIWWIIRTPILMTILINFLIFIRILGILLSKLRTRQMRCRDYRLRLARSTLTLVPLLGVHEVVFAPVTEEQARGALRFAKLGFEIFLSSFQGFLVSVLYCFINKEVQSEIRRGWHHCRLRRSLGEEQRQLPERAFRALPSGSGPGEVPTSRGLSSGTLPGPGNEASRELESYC
Description: The cell lines were constructed by Wuxi […] (Shanghai) Co., Ltd. See details in Table 1 below. […] The test compounds were diluted at a 4-fold dilution factor in 10 points, starting from an initial concentration of 30 μM. The dilution was carried out by Bravo. • 1) 100 nL of compounds were transferred to an OptiPlate-384 plate by Echo. • 2) The OptiPlate-384 plate was centrifuged at 1000 rpm for 5 s. • 1) A GLP-1R/GIPR cell cryovial was placed in warm water at 37° C. for rapid thawing. • 2) The cell suspension was transferred into a 15 mL Transfer centrifugal tube and rinsed with 10 mL of HBSS gently. • 3) The centrifugal tube was centrifuged at 1000 rpm at room temperature for 1 min. • 4) The supernatant was discarded. • 5) The bottom cells were gently dispersed, then gently rinsed with 10 mL of HBSS, the centrifugal tube was centrifuged to settle the cells, and finally the cells were resuspended in an experimental buffer. • 6) Cell density and viability were measured by Vi-cell. • 7) The GLP-1R/GIPR cells were diluted with the experimental buffer to a concentration of 2.0*10^5/mL. • 8) […] of the diluted cell suspension was transferred into the OptiPlate-384 plate. • 9) Incubation was performed at room temperature for 30 min. • 1) 10 μL of 800 nM gradient diluted cAMP standard was added into the empty wells of the OptiPlate-384 plate. • 2) 10 μL of cAMP assay reagent was added. • 3) The OptiPlate-384 plate was covered with TopSeal-A film and incubated at room temperature for 60 min. The TopSeal-A film was removed, and readout was performed on En Vision.

in vitro = in vitro ADME; conditions: human, plasma
Description: • 1. Before the experiment, the clotted frozen plasma was thawed in a water bath at 37° C. The resulting plasma was centrifuged at 4000 rpm for 5 min. If there is blood clot, remove the clot and adjust the pH to 7.4±0.1. • 2. The test compound solution was prepared by diluting the compounds with DMSO to prepare a solution of 100 μM. • 3. 98 μL of plasma, as a blank control, was added with 2 μL of the test compound solution (100 μM) to get a mixed solution with a final concentration of 2 μM, which was incubated in a water bath at 37° C. • 4. 100 μL of H3PO4 solution and 800 μL of stop solution (a 100% solution of 200 ng/mL tolbutamide and 200 ng/ml labetalol in methanol) were respectively added at each time point (0, 10, 30, 60, and 120 min) to precipitate protein, which was then mixed thoroughly. • 5. The samples were centrifuged at 4000 rpm for 20 min, and 100 μL of supernatant was taken from each well for LC-MS/MS analysis.

SMILES | AUC(0-t) (in vivo) [µM·h] | Cmax (in vivo) [nM] | Tmax (in vivo) [h] | half-life (in vivo) [h] | EC50 (GIPR; with 1% HSA) [nM] | EC50 (GIPR; without 1% HSA) [nM] | half-life (in vitro) [h] | half-life at 2 μM (in vitro; pH 7.4) [h]
CC[C@H](C)[C@H](NC(=O)[C@H](CC(C)C)NC(=O)[C@H](Cc1c[nH]c2ccccc12)NC(=O)[C@H](CCC(=O)O)NC(=O)[C@@H](NC(=O)[C@H](Cc1ccccc1)NC(=O)[C@H](C)NC(=O)[C@@H]1CCCCNC(=O)CN(C(=O)COCCOCCNC(=O)COCCOCCNC(=O)CC[C@H](NC(=O)CCCCCCCCCCCCCCCCCCC(=O)O)C(=O)O)CC(=O)NCCCC[C@H](NC(=O)[C@H](CCCCN)NC(=O)[C@H](CC(=O)O)NC(=O)[C@H](CC(C)C)NC(=O)C(C)(C)NC(=O)[C@@H](NC(=O)[C@H](CO)NC(=O)[C@H](Cc2ccc(O)cc2)NC(=O)[C@H](CC(=O)O)NC(=O)[C@H](CO)NC(=O)[C@@H](NC(=O)[C@H](Cc2ccccc2)NC(=O)[C@@H](NC(=O)CNC(=O)[C@H](CCC(=O)O)NC(=O)C(C)(C)NC(=O)[C@@H](N)Cc2ccc(O)cc2)[C@@H](C)O)[C@@H](C)O)[C@@H](C)CC)C(=O)N[C@@H](C)C(=O)N[C@@H](CCC(N)=O)C(=O)N1)C(C)C)C(=O)N[C@@H](C)C(=O)NCC(=O)NCC(=O)N1CCC[C@H]1C(=O)N[C@@H](CO)C(=O)N[C@@H](CO)C(=O)NCC(=O)N[C@@H](C)C(=O)N1CCC[C@H]1C(=O)N1CCC[C@H]1C(=O)N1CCC[C@H]1C(=O)N[C@@H](CO)C(N)=O [WX-005] | 4.47 | 36 | 24 | 100 | 19.3 | 0.16 | > 4.82 | –
CC[C@H](C)[C@H](NC(=O)[C@H](CC(C)C)NC(=O)[C@H](Cc1c[nH]c2ccccc12)NC(=O)[C@H](CCC(=O)O)NC(=O)[C@@H](NC(=O)[C@H](Cc1ccccc1)NC(=O)[C@H](CCC(=O)O)NC(=O)[C@@H]1CCCCNC(=O)CN(C(=O)COCCOCCNC(=O)COCCOCCNC(=O)CC[C@H](NC(=O)CCCCCCCCCCCCCCCCCCC(=O)O)C(=O)O)CC(=O)NCCCC[C@H](NC(=O)[C@H](CCCCN)NC(=O)[C@H](CC(=O)O)NC(=O)[C@H](CC(C)C)NC(=O)C(C)(C)NC(=O)[C@@H](NC(=O)[C@H](CO)NC(=O)[C@H](Cc2ccc(O)cc2)NC(=O)[C@H](CC(=O)O)NC(=O)[C@H](CO)NC(=O)[C@@H](NC(=O)[C@H](Cc2ccccc2)NC(=O)[C@@H](NC(=O)CNC(=O)[C@H](CCC(=O)O)NC(=O)C(C)(C)NC(=O)[C@@H](N)Cc2ccc(O)cc2)[C@@H](C)O)[C@@H](C)O)[C@@H](C)CC)C(=O)N[C@@H](C)C(=O)N[C@@H](CCC(N)=O)C(=O)N1)C(C)C)C(=O)N[C@@H](C)C(=O)NCC(=O)NCC(=O)N1CCC[C@H]1C(=O)N[C@@H](CO)C(=O)N[C@@H](CO)C(=O)NCC(=O)N[C@@H](C)C(=O)N1CCC[C@H]1C(=O)N1CCC[C@H]1C(=O)N1CCC[C@H]1C(=O)N[C@@H](CO)C(N)=O [WX-009] | – | 37 | 24 | – | – | 0.074 | – | > 4.82

From patent US20240270810A1, “PREPARATION AND APPLICATION OF POLYPEPTIDE” (GUANGDONG RAYNOVENT BIOTECH CO., LTD., priority 2021, published 2024)
